In paper PMC11181478, “SARS-CoV-2 Main Protease Inhibitors That Leverage Unique Interactions with the Solvent Exposed S3 Site of the Enzyme” (ACS Medicinal Chemistry Letters, 2024):
Like-named read-outs stand apart in the source and are kept apart here.

Key:
[1] = biological target: T1, SARS-CoV-2 M^Pro (Severe acute respiratory syndrome coronavirus 2, UniProt P0DTD1); assay: In vitro M^Pro inhibition potency (enzymatic IC50, fluorogenic substrate Sub3); type: biochemical; details: 20 nM M^Pro, 10 μM Sub3, 30 min preincubation, pH 7.6
[2] = biological target: M^Pro-eGFP fusion protein transiently expressed in 293T cells (Severe acute respiratory syndrome coronavirus 2, UniProt P0DTD1); type: cell-based, SARS-CoV-2; details: read-out: Cellular EC50
[3] = biological target: T1, SARS-CoV-2 M^Pro; details: read-out: IC50 against M^Pro; previously published inhibitors; cited from earlier work

| SMILES | IC50 [1] [nM] | EC50 [2] [nM] | IC50 [3] [nM] |
| --- | --- | --- | --- |
| CC(C)(C)C[C@H](NC(=O)N1CC[C@@H]1c1ccccc1)C(=O)N[C@H](C=O)C[C@@H]1CCNC1=O [MPI105] | 39 | > 5000 |  |
| CC(C)(C)C[C@H](NC(=O)OCc1cccnc1)C(=O)N[C@H](C=O)C[C@@H]1CCNC1=O [MPI101] | 20 | > 5000 |  |
| CC1(C)[C@@H]2[C@@H](C(=O)N[C@H](C=O)C[C@@H]3CCNC3=O)N(C(=O)OC(c3ccc(F)cc3)c3ccc(F)cc3)C[C@@H]21 [MPI95] |  | 910 |  |
| CC1(C)[C@@H]2[C@@H](C(=O)N[C@H](C=O)C[C@@H]3CCNC3=O)N(C(=O)C(c3ccc(Cl)cc3)c3ccc(Cl)cc3)C[C@@H]21 [MPI96] |  | 2900 |  |
| CC(C)(C)C[C@H](NC(=O)[C@@H]1CC[C@@H]1c1ccccc1)C(=O)N[C@H](C=O)C[C@@H]1CCNC1=O [MPI104] | 79 | > 5000 |  |
| CC1(C)[C@@H]2[C@@H](C(=O)N[C@H](C=O)C[C@@H]3CCNC3=O)N(C(=O)N(c3ccc(Cl)cc3)c3ccc(Cl)cc3)C[C@@H]21 [MPI97] |  | 1100 |  |
| CC1(C)[C@@H]2[C@@H](C(=O)N[C@H](C#N)C[C@@H]3CCNC3=O)N(C(=O)[C@@H](NC(=O)C(F)(F)F)c3ccc(Cl)c(Cl)c3)C[C@@H]21 [MPI108] |  | > 5000 |  |
| CC1(C)[C@@H]2[C@@H](C(=O)N[C@H](C#N)C[C@@H]3CCNC3=O)N(C(=O)OCc3cccnc3)C[C@@H]21 [MPI103] | 28 | > 5000 |  |
| CC1(C)[C@@H]2[C@@H](C(=O)N[C@H](C=O)C[C@@H]3CCNC3=O)N(C(=O)OCc3cccnc3)C[C@@H]21 [MPI102] | 28 | > 5000 |  |
| CC1(C)[C@@H]2[C@@H](C(=O)N[C@H](C=O)C[C@@H]3CCNC3=O)N(C(=O)C(Oc3ccc(Cl)cc3)Oc3ccc(Cl)cc3)C[C@@H]21 [MPI98] |  | 490 |  |
| CC1(C)[C@@H]2[C@@H](C(=O)N[C@H](C#N)C[C@@H]3CCNC3=O)N(C(=O)[C@@H](NC(=O)C(F)(F)F)c3ccc(Cl)cc3)C[C@@H]21 [MPI106] |  | > 5000 |  |
| CC1(C)[C@@H]2[C@@H](C(=O)N[C@H](C=O)C[C@@H]3CCNC3=O)N(C(=O)[C@H](Cc3ccccc3)NC(=O)OCc3ccccc3)C[C@@H]21 [MPI99] | 270 | > 5000 |  |
| CC1(C)[C@@H]2[C@@H](C(=O)N[C@H](C=O)C[C@@H]3CCNC3=O)N(C(=O)[C@H](CC3CCCCC3)NC(=O)OCc3ccccc3)C[C@@H]21 [MPI100] |  | 140 |  |
| CC1(C)[C@@H]2[C@@H](C(=O)N[C@H](C=O)C[C@@H]3CCNC3=O)N(C(=O)OC(c3ccccc3)c3ccccc3)C[C@@H]21 [MPI94] |  | 900 |  |
| CC(C)(C)C[C@H](NC(=O)OCc1ccccc1)C(=O)N[C@H](C=O)C[C@@H]1CCNC1=O [MPI50] |  |  | 53 |
